Experiments:
Assay in all cases: Broth dilution MIC
Format in all cases: cell-based
Details in all cases: Mueller-Hinton broth, 18 hours at 35° C.
[1] = test system: P. aeruginosa GC 2214
Procedure: (§1) The in vitro antibacterial activity of AA-896-A1, AA-896-A2, AA-896-A3, AA-896-A4, AA-896-A5, AA-896-B1, AA-896-B2, AA-896-B3, AA-896-B4, AA-896-B5, AA-896-B6, AA-896-B7, AA-896-C1, AA-896-C2, AA-896-C3, AA-896-C4, AA-896-D1, AA896-D2 and AA-896-D3 is determined against a spectrum of Gram-positive and Gram-negative bacteria by a standard broth dilution method. Serial dilution of the compounds are made in Mueller-Hinton broth and inoculated with a bacterial suspension. The lowest concentration of compound that inhibited the growth of a bacterial strain after 18 hours of incubation at 35° C. is reported as the minimal inhibitory concentration (MIC) for that strain.

[2] = test system: S. marcescens GC 4077
Procedure: as §1

[3] = test system: E. coli GC 4559
Procedure: as §1

[4] = test system: E. coli GC 4560
Procedure: as §1

[5] = test system: E. coli GC 3226
Procedure: as §1

[6] = test system: E. cloacae GC 3783
Procedure: as §1

[7] = test system: CNS GC 4537
Procedure: as §1

[8] = test system: CNS GC 4538
Procedure: as §1

[9] = test system: P. aeruginosa GC 4532
Procedure: as §1

[10] = test system: CNS GC 4547
Procedure: as §1

[11] = test system: M. morganii GC 4531
Procedure: as §1

[12] = test system: S. aureus GC 4536
Procedure: as §1

[13] = test system: E. faecalis GC 842
Procedure: as §1

[14] = test system: P. rettgeri GC 4530
Procedure: as §1

[15] = test system: E. coli GC 2203
Procedure: as §1

[16] = test system: E. faecalis GC 242
Procedure: as §1

[17] = test system: K. pneumoniae GC 4534
Procedure: as §1

[18] = test system: S. aureus GC 1131
Procedure: as §1

[19] = test system: E. faecalis GC 4555
Procedure: as §1

[20] = test system: S. aureus GC 2216
Procedure: as §1

| Molecule | Antimicrobial Activity (MIC) [1] [µg/mL] | Antimicrobial Activity (MIC) [2] [µg/mL] | Antimicrobial Activity (MIC) [3] [µg/mL] | Antimicrobial Activity (MIC) [4] | Antimicrobial Activity (MIC) [5] [µg/mL] | Antimicrobial Activity (MIC) [6] [µg/mL] | Antimicrobial Activity (MIC) [7] [µg/mL] | Antimicrobial Activity (MIC) [8] [µg/mL] | Antimicrobial Activity (MIC) [9] [µg/mL] | Antimicrobial Activity (MIC) [10] [µg/mL] | Antimicrobial Activity (MIC) [11] [µg/mL] | Antimicrobial Activity (MIC) [12] [µg/mL] | Antimicrobial Activity (MIC) [13] [µg/mL] | Antimicrobial Activity (MIC) [14] [µg/mL] | Antimicrobial Activity (MIC) [15] [µg/mL] | Antimicrobial Activity (MIC) [16] [µg/mL] | Antimicrobial Activity (MIC) [17] [µg/mL] | Antimicrobial Activity (MIC) [18] [µg/mL] | Antimicrobial Activity (MIC) [19] [µg/mL] | Antimicrobial Activity (MIC) [20] [µg/mL] |
| --- | --- | --- | --- | --- | --- | --- | --- | --- | --- | --- | --- | --- | --- | --- | --- | --- | --- | --- | --- | --- |
| CC(C)CC(NC(=O)C(NC(=O)NC(C(=O)O)C(C)C)C1CCNC(=N)N1)C(=O)NCCCNC(C(=O)O)C(OC1OC(CN)C(O)C1O)C1OC(n2ccc(=O)[nH]c2=O)C(O)C1O [AA-896-D2, 5-O-[5-Amino-5-deoxy-β-D-ribofuranosyl]-6-[[3-[2-[2-[[(1-carboxy-2-methylpropyl)-carbamoyl]amino]-2-(hexahydro-2-iminopyrimidin-4-yl)acetamido]-4-methylpentanamido]-propyl]amino]-1,6-dideoxy-1-(3,4-dihydro-2,4-dioxopyrimidin-1(2H)-yl)-β-D-heptofuran-uronic acid] | 32 | >32 | 32 | 0.25 µg/mL | 16 | 16 | >32 | >32 | 32 | >32 | >32 | >32 | >32 | >32 | 16 | >32 | >32 | >32 | >32 | >32 |
| COC1C(OC(C(NCCCNC(=O)C(NC(=O)C(NC(=O)NC(C(=O)O)C(C)C)C2CCNC(=N)N2)C(OC(=O)CCCCCC(C)C)C(C)C)C(=O)O)C2OC(n3ccc(=O)[nH]c3=O)C(O)C2O)OC(CN)C1O [AA-896-B4, 5-O-[5-Amino-5-deoxy-2-O-methyl-β-D-ribofuranosyl]-6-[[3-[2-[2-[[(1-carboxy-2-methyl-propyl)carbamoyl]amino]-2-(hexahydro-2-iminopyrimidin-4-yl)acetamido]-4-methyl-3-[(7-methyloctanoyl)oxy]pentanamido]propyl]amino]-1,6-dideoxy-1-(3,4-dihydro-2,4-dioxopyrimidin-1(2H)-yl)-β-D-heptofuranuronic acid] | 32 | >64 | 8 | <=0.06 μg/ml | 64 | 8 | 64 | 32 | 64 | >64 | >64 | 64 | >64 | >64 | 32 | >64 | 16 | 64 | 64 | 64 |
| 5-O-[5-Amino-5-deoxy-β-D-ribofuranosyl]-6-[[3-[3-[[13-(carbamimidoylhydroxyamino)-tridecanoyl]oxy]-2-[2-[[(1-carboxy-2-methylpropyl)carbamoyl]amino]-2-(hexahydro-2-iminopyrimidin-4-yl)acetamido]-4-methylpentanamido]propyl]amino]-1,6-dideoxy-1-(3,4-dihydro-2,4-dioxopyrimidin-1(2H)-yl)-β-D-heptofuranuronic acid [AA-896-A4] | 32 | >32 | 32 | 0.12 µg/mL | 8 | 1 | 4 | 2 | 32 | 8 | >32 | 8 | 32 | >32 | 16 | 32 | >32 | 8 | 32 | 4 |

More lines, now with the values ahead:

| Antimicrobial Activity (MIC) [1] [µg/mL] | Antimicrobial Activity (MIC) [2] [µg/mL] | Antimicrobial Activity (MIC) [3] [µg/mL] | Antimicrobial Activity (MIC) [4] | Antimicrobial Activity (MIC) [5] [µg/mL] | Antimicrobial Activity (MIC) [6] [µg/mL] | Antimicrobial Activity (MIC) [7] [µg/mL] | Antimicrobial Activity (MIC) [8] [µg/mL] | Antimicrobial Activity (MIC) [9] [µg/mL] | Antimicrobial Activity (MIC) [10] [µg/mL] | Antimicrobial Activity (MIC) [11] [µg/mL] | Antimicrobial Activity (MIC) [12] [µg/mL] | Antimicrobial Activity (MIC) [13] [µg/mL] | Antimicrobial Activity (MIC) [14] [µg/mL] | Antimicrobial Activity (MIC) [15] [µg/mL] | Antimicrobial Activity (MIC) [16] [µg/mL] | Antimicrobial Activity (MIC) [17] [µg/mL] | Antimicrobial Activity (MIC) [18] [µg/mL] | Antimicrobial Activity (MIC) [19] [µg/mL] | Antimicrobial Activity (MIC) [20] [µg/mL] | Molecule |
| --- | --- | --- | --- | --- | --- | --- | --- | --- | --- | --- | --- | --- | --- | --- | --- | --- | --- | --- | --- | --- |
| 32 | >32 | >32 | 2 µg/mL | 16 | 16 | >32 | >32 | 32 | >32 | >32 | >32 | >32 | >32 | 16 | >32 | >32 | >32 | >32 | >32 | CC(C)C(NC(=O)NC(C(=O)NC(C(=O)NCCCNC(C(=O)O)C(O[C@@H]1O[C@H](CN)[C@@H](O)[C@H]1O)C1OC(n2ccc(=O)[nH]c2=O)C(O)C1O)C(O)C(C)C)C1CCNC(=N)N1)C(=O)O (stereo partly drawn) [AA-896-C2, 5-O-[5-Amino-5-deoxy-β-D-ribofuranosyl]-6-[[3-[2-[2-[[(1-carboxy-2-methylpropyl)-carbamoyl]amino]-2-(hexahydro-2-iminopyrimidin-4-yl)acetamido]-3-hydroxy-4-methyl-pentanamido]propyl]amino]-1,6-dideoxy-1-(3,4-dihydro-2,4-dioxopyrimidin-1(2H)-yl)-β-D-heptofuranuronic acid] |
| 32 | >32 | >32 | 1 µg/mL | 32 | 32 | >32 | >32 | >32 | >32 | >32 | >32 | >32 | >32 | 32 | >32 | >32 | >32 | >32 | >32 | COC1C(OC(C(NCCCNC(=O)C(NC(=O)C(NC(=O)NC(C(=O)O)C(C)C)C2CCNC(=N)N2)C(O)C(C)C)C(=O)O)C2OC(n3ccc(=O)[nH]c3=O)C(O)C2O)OC(CN)C1O [AA-896-C1, 5-O-[5-Amino-5-deoxy-2-O-methyl-β-D-ribofuranosyl]-6-[[3-[2-[2-[[(1-carboxy-2-methyl-propyl)carbamoyl]amino]-2-(hexahydro-2-iminopyrimidin-4-yl)acetamido]-3-hydroxy-4-methylpentanamido]propyl]amino]-1,6-dideoxy-1-(3,4-dihydro-2,4-dioxopyrimidin-1(2H)-yl)-β-D-heptofuranuronic acid] |
